The values below come from patent US20140357688A1, “METHOD FOR INHIBITING EZH2 EXPRESSION IN BREAST CANCER CELLS” (Yung Shin Pharm. Ind. Co., Ltd., priority 2013, published 2014).

Holding throughout (type): cell-based, human
The subject of experiment [1] is MDA-MB-468 cells. Put plainly: Colony formation (clonogenic) assay. As to the method:
(§1) (A) Cells were treated with indicated concentration of YC-1 for 6, 24, and 48 h. Cell viability was determined by MTT method. (B) MDA-MB-468 cells were treated with 3 μM YC-1 for 0, 6, and 12 h, and then stained with fluorescence diacetate (FDA) and propidium iodide (PI). Cell morphology was assessed by fluorescence microscopy with magnification ×20 (upper 3 rows) or ×40 (lowest row). (C) MDA-MB-468 cells were treated with 3 μM YC-1 for 24 h, cells were lysed and subjected to western blot analysis described in Materials and Methods. β-actin is a loading control. Blots were representative of results from three independent experiments. (D) Cells were treated with vehicle (DMSO, as control) or 3 μM YC-1 for 6 h. The cell cycles were analyzed by flow cytometry. (E) Cells were treated with indicated concentration of YC-1 and then performed with clonogenic assay.
After exposure to YC-1, cells were collected and washed extensively with PBS. Five hundred cells per well was seeded onto 6-well plates and maintained in a 37° C., 5% CO2 incubator. Three weeks later, colonies were fixed with formaldehyde (3.7%, v/v) and stained with crystal violet (0.5%, w/v), then counted.

For another experiment, the system named is MCF-10A. Description: MTT cell viability assay. As to conditions: normal mammary epithelial cells MCF-10A. How it is done:
as §1
(§2) Human breast cancer cells, MDA-MB-468, MDA-MB-157, MDA-MB-231, MDA-MB-453, and Hs578T, and immortalized mammary epithelial cell lines, 184A1 and MCF-10A, were obtained from American Type Culture Collection (Manassas, Va., USA). MDA-MB-468, MDA-MB-157, MDA-MB-231, and MDA-MB-453 were cultured in DMEM/F12 medium supplemented with 10% FBS, 100 U/ml penicillin, and 100 μg/ml streptomycin. Hs578T was cultured in RPMI 1640 medium containing 10% FBS, 2 mM L-glutamine, 100 U/ml penicillin, and 100 μg/ml streptomycin. 184A1 and MCF-10A were cultured in DMEM/F12 medium supplemented with 5% horse serum, 0.5 μg/ml hydrocortisone, 10 μg/ml insulin, 20 ng/ml epidermal growth factor, 0.1 μg/ml cholera enterotoxin, 2 mM L-glutamine, 100 U/ml penicillin, and 100 μg/ml streptomycin. All cells were maintained in a humidified incubator containing 5% CO2. For hypoxia treatment, cells were incubated in a chamber flushed with 1% 02, 5% CO2, and 94% N2 at 37° C.
(§3) Cell viability was measured by 3-(4,5-Dimethyl-2-thiazolyl)2,5-diphenyl-2H-tetrazolium bromide (MTT) assay.

A further experiment has as its system 184A1. Put plainly: MTT cell viability assay. Particulars: normal mammary epithelial cells 184A1. As to the method: as §1, §2, §3
For orientation: Tetrazolium assays rely on reduction of a dye to a coloured formazan, in cell work by metabolically active cells.

The test system of another experiment is MDA-MB-468. Put plainly: MTT cell viability assay. Particulars: Homo sapiens, MDA-MB-468. As to the method:
as §1, §2, §3

For a further experiment, the system named is EZH2. Put plainly: Western blot of EZH2 protein expression in MDA-MB-468 cells. How it is done:
Cells were harvested and performed with western blotting analysis. […] The levels of protein expression were quantitated and shown under blots. (C) Cells were transfected with EZH2 shRNA for 0, 1, 2, 3, and 4 days and collected for determination of cell viability (left) and protein expression (right). (D)(E) After 4 days of EZH2 knockdown, cells were incubated with 3 μM YC-1 for 4 h and detected cell viability (D) and protein contents (E). (F) Tumor specimens were isolated and protein was extracted for western blot analysis.
Cells were lysed in PBS containing proteinase inhibitor and phosphatase inhibitors and sonication. Protein concentration was measured using the Bio-Rad protein assay kit (Bio-Rad Laboratories, Hercules, Calif., USA). Lysate protein was separated by electrophoresis of SDS-PAGE and transferred to Immobilon P membrane (EMD Millipore). The membranes were incubated with appropriate primary antibodies and horseradish peroxidase-conjugated secondary antibodies (EMD Millipore). The signaling was visualized using Chemiluminescence substrate kit (EMD Millipore) and collected by the Luminesence image analyzer, LAS4000 (Fuji Photo Film Co., Tokyo, Japan). The band intensities were analyzed and quantified by the Multi Gauge software (Fuji Photo Film).
On the technique in general: In western blotting, separated proteins are transferred to a membrane and probed.

Experiment [2] relates to MDA-MB-468 cells. Put plainly: Cell cycle analysis by flow cytometry. As to conditions: 3 μM YC-1, 6 h post-treatment. As to the method:
as §1
Cells (1×10^6) treated with YC-1 were fixed in cold 70% ethanol overnight. Cells were stained with staining solution (0.5% Triton X-100, 2 mg/ml propidium iodide, 1 mg/ml RNase A in 1×PBS), followed by analysis on a FACSCalibur flow cytometer (BD Biosciences, Mountain View, Calif., USA).
For orientation: Flow cytometry measures light scatter and fluorescence of single cells or particles in a stream.

In a further experiment the test system is Akt. Put plainly: Western blot of Akt activation. As to conditions: 3 μM YC-1. As to the method:
(A) MDA-MB-468 cells were incubated with 3 μM YC-1 for indicated time. Cells were harvested for the detection of phospho-Akt (Ser473), Akt, and PCNA. (B) Cells were pretreated with LY294002 (LY, 10 μM) for 1 h followed by 3 μM YC-1 induction for 6 h. (C) MDA-MB-468 cells were incubated with 3 μM YC-1 for indicated time. Cells were harvested for the detection of phospho-CDK1 (Thr161), CDK1, phospho-EZH2 ([…]), EZH2, and β-actin expression with western blot analysis. Levels of EZH2 phosphorylation were calculated by phospho-EZH2 normalized by total EZH2. (D) Cells were treated with YC-1 for 6 h in the absence or presence of roscovitine (Rosc, 20 μM). Cells were harvested and analyzed by western blotting for protein expression. (E) CDK1 knockdown of MDA-MB-468 cells were induced with 3 μM YC-1 for 4 h and followed by western blot analysis.
Cells were lysed in PBS containing proteinase inhibitor and phosphatase inhibitors and sonication. Protein concentration was measured using the Bio-Rad protein assay kit (Bio-Rad Laboratories, Hercules, Calif., USA). Lysate protein was separated by electrophoresis of SDS-PAGE and transferred to Immobilon P membrane (EMD Millipore). […] The band intensities were analyzed and quantified by the Multi Gauge software (Fuji Photo Film).

Experiment [3] deals with caspase-8, -9, and -3 and PARP. Description: Western blot of caspases and PARP cleavage. As to the method: as §1, with “(E) Cells were treated with indicated concentration of YC-1 and then performed with clonogenic assay.” left out
(A)(B) Cells were treated with indicated concentration of YC-1 for 24 h (A) or 3 μM of YC-1 for indicated time (B). […] The levels of protein expression were quantitated and shown under blots. […] (D)(E) After 4 days of EZH2 knockdown, cells were incubated with 3 μM YC-1 for 4 h and detected cell viability (D) and protein contents (E). […]
Cells were lysed in PBS containing proteinase inhibitor and phosphatase inhibitors and sonication. Protein concentration was measured using the Bio-Rad protein assay kit (Bio-Rad Laboratories, Hercules, Calif., USA). […] The band intensities were analyzed and quantified by the Multi Gauge software (Fuji Photo Film).

`OCc1ccc(-c2nn(Cc3ccccc3)c3ccccc23)o1` [YC-1, 3-(5′-hydroxymethyl-2′-furyl)-1-benzyl indazole]: in the experiment on MDA-MB-468 cells [1], the clonogenic activity result is “potent ability in attenuation of tumor formation”. The “effect on cell viability” value in the experiment with MCF-10A and in the experiment with 184A1 was “no effect” throughout. For the same compound, the half-inhibitory concentration (IC50) amounted to 620 ± 20 nM in the experiment with MDA-MB-468 (24 h-incubation); 290 ± 20 nM with MDA-MB-468 (48 h-incubation); 540 ± 40 nM in the experiment with EZH2 (24 h-incubation, MDA-MB-468, read-out: IC50, inhibition of EZH2 expression). Besides, the “inhibition of EZH2 protein” value in the experiment with EZH2 (3 μM YC-1, 2 h) is “about 18%”. The sub-G1 population in the experiment on MDA-MB-468 cells [2] (control 5.9%) turned out to be 13.5%. Further, the “percentage of cells at the G1 phase” value in the experiment with MDA-MB-468 cells [2] (control 57.2%) came to 64.8%. For the same compound, the Akt activation entry in the experiment on Akt is listed as “activated”. Moreover, the “earliest effects of caspase-3 activation detected” value in experiment [3] (3 μM YC-1) was found to be 4 h. The “cleavage of caspases and PARP” value in experiment [3] (3 μM YC-1, 24 h) was “clearly caused the cleavage of caspases and PARP”.

By IC50 is commonly meant the midpoint of a concentration-inhibition curve.
